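A five-concentration, 48-hour dose response in 96-well plates underlies each endpoint, interpolated linearly between surrounding concentrations. Here, GI50 denotes the concentration required for 50% inhibition of growth.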 Calls of active or inactive are those of the source. No stated cut-off is given here; in the data, active = GI50 up to about 1.1 µM and inactive = higher.
Columns and labels:
Assay in all cases: NCI-60 cell line screen, 48 h
A549 = test system: A549
SF-295 = test system: SF-295
NCI-H460 = test system: NCI-H460
M14 = test system: M14
OVCAR-5 = test system: OVCAR-5
SK-MEL-5 = test system: SK-MEL-5
SR = test system: SR
IGROV-1 = test system: IGROV-1
LXFL 529 = test system: LXFL 529
SF-539 = test system: SF-539
LOX IMVI = test system: LOX IMVI
COLO 205 = test system: COLO 205
HL-60 = test system: HL-60
SF-268 = test system: SF-268
UO-31 = test system: UO-31
UACC-257 = test system: UACC-257
K562 = test system: K562
MOLT-4 = test system: MOLT-4
HOP-92 = test system: HOP-92

Measured: GI50

CCOC(=O)/C(=C/c1ccc(C(F)(F)F)cc1)N(CC)CC
inactive: A549 38.8 µM | SF-295 84.7 µM | NCI-H460 > 100 µM | M14 > 100 µM | OVCAR-5 87.1 µM | SK-MEL-5 32.7 µM | SR > 100 µM | IGROV-1 47.8 µM | LXFL 529 51.6 µM | SF-539 > 100 µM | LOX IMVI > 100 µM | COLO 205 > 100 µM | HL-60 > 100 µM | SF-268 72.3 µM | UO-31 46.1 µM | UACC-257 66.8 µM | K562 > 100 µM | MOLT-4 96.4 µM | HOP-92 17.5 µM

Cc1c2c(c(C)c3c1[nH]c1ccccc13)CN(C)CC2
inactive: A549 17.9 µM | SF-295 17.1 µM | NCI-H460 16.5 µM | M14 15.1 µM | OVCAR-5 38.8 µM | SK-MEL-5 13.3 µM | SR 24.8 µM | IGROV-1 26.8 µM | LXFL 529 14.9 µM | SF-539 14.2 µM | LOX IMVI 15.5 µM | COLO 205 15 µM | HL-60 52 µM | SF-268 20.3 µM | UO-31 19.5 µM | UACC-257 17.2 µM | K562 31.3 µM | MOLT-4 28.7 µM | HOP-92 16.6 µM

COc1cc(CC(C)N)ccc1O (stereo not drawn)
inactive: A549 > 100 µM | SF-295 > 100 µM | NCI-H460 > 100 µM | M14 > 100 µM | OVCAR-5 > 100 µM | SK-MEL-5 > 100 µM | SR > 100 µM | IGROV-1 > 100 µM | LXFL 529 > 100 µM | SF-539 > 100 µM | LOX IMVI > 100 µM | COLO 205 > 100 µM | HL-60 > 100 µM | SF-268 > 100 µM | UO-31 > 100 µM | UACC-257 > 100 µM | K562 > 100 µM | MOLT-4 > 100 µM | HOP-92 > 85.9 µM

CC1CN(c2ccc(Cl)cc2)CC(C)(C)OC(=O)O1 (stereo not drawn)
inactive: A549 > 100 µM | SF-295 > 100 µM | NCI-H460 > 100 µM | M14 > 100 µM | OVCAR-5 > 100 µM | SK-MEL-5 > 100 µM | SR > 100 µM | IGROV-1 > 100 µM | LXFL 529 > 100 µM | SF-539 > 100 µM | LOX IMVI > 100 µM | COLO 205 > 100 µM | HL-60 > 100 µM | SF-268 > 100 µM | UO-31 > 100 µM | UACC-257 > 100 µM | K562 > 100 µM | HOP-92 > 100 µM

C=CCc1cc(OC)c2c(c1)C(O)CC(c1ccccc1)O2 (stereo not drawn)
inactive: A549 > 100 µM | SF-295 > 100 µM | NCI-H460 > 100 µM | M14 > 100 µM | OVCAR-5 78.5 µM | SK-MEL-5 > 100 µM | SR > 100 µM | IGROV-1 > 100 µM | LXFL 529 > 100 µM | SF-539 > 100 µM | COLO 205 > 100 µM | HL-60 35.6 µM | SF-268 > 100 µM | UO-31 > 100 µM | UACC-257 > 100 µM | K562 23.6 µM | MOLT-4 27.9 µM | HOP-92 > 100 µM

Cc1cc(C)cc(NC(N)=S)c1
inactive: A549 > 100 µM | SF-295 > 100 µM | NCI-H460 > 100 µM | M14 > 100 µM | OVCAR-5 > 100 µM | SK-MEL-5 > 100 µM | SR 33.5 µM | IGROV-1 > 100 µM | LXFL 529 > 100 µM | SF-539 > 100 µM | LOX IMVI 29.1 µM | COLO 205 26.7 µM | HL-60 30.8 µM | SF-268 53.7 µM | UO-31 > 100 µM | UACC-257 36.4 µM | K562 > 100 µM | MOLT-4 > 100 µM | HOP-92 > 100 µM

Cc1ccc(/C=N/NS(=O)(=O)c2ccccc2)c(C)c1
inactive: A549 > 100 µM | SF-295 > 100 µM | NCI-H460 > 100 µM | M14 > 100 µM | OVCAR-5 > 100 µM | SK-MEL-5 > 100 µM | SR > 100 µM | IGROV-1 > 100 µM | LXFL 529 > 100 µM | SF-539 > 100 µM | LOX IMVI > 100 µM | COLO 205 > 100 µM | HL-60 > 100 µM | SF-268 > 100 µM | UO-31 > 100 µM | UACC-257 80 µM | K562 > 100 µM | MOLT-4 > 100 µM | HOP-92 > 100 µM

O=S(=O)(O)c1cc(O)c2c(O)c(/N=N/c3ccc(/C=C/c4ccc(/N=N/c5c(S(=O)(=O)O)cc6cc(S(=O)(=O)O)cc(O)c6c5O)cc4S(=O)(=O)O)c(S(=O)(=O)O)c3)c(S(=O)(=O)O)cc2c1
inactive: A549 > 100 µM | SF-295 > 100 µM | NCI-H460 > 100 µM | M14 > 100 µM | OVCAR-5 > 100 µM | SK-MEL-5 > 100 µM | SR > 100 µM | IGROV-1 > 100 µM | LXFL 529 > 100 µM | SF-539 > 100 µM | LOX IMVI > 100 µM | COLO 205 > 100 µM | HL-60 > 100 µM | SF-268 > 100 µM | UO-31 > 100 µM | UACC-257 > 100 µM | K562 > 100 µM | MOLT-4 > 100 µM | HOP-92 95.7 µM

CC(C)(c1ccccc1)c1ccc(Oc2ccc(C#N)c(C#N)c2)cc1
inactive: A549 27 µM | SF-295 4.47 µM | NCI-H460 > 10 µM | M14 71.8 µM | OVCAR-5 > 10 µM | SK-MEL-5 20.7 µM | SR 6.41 µM | IGROV-1 > 10 µM | LXFL 529 24.4 µM | SF-539 > 10 µM | LOX IMVI > 10 µM | COLO 205 > 10 µM | HL-60 20.5 µM | SF-268 43.5 µM | UO-31 4.48 µM | UACC-257 > 10 µM | K562 15 µM | MOLT-4 28.5 µM | HOP-92 10.3 µM

COc1ccc(N2C(=O)C3c4[nH]c5ccccc5c4C4CCCCCCC4C3C2=O)cc1 (stereo not drawn)
inactive: A549 6.76 µM | SF-295 11.6 µM | NCI-H460 7.18 µM | M14 11.9 µM | OVCAR-5 > 52.1 µM | SK-MEL-5 23.8 µM | SR 6.52 µM | IGROV-1 18.2 µM | LXFL 529 6.08 µM | SF-539 7.74 µM | LOX IMVI 5 µM | COLO 205 13.2 µM | HL-60 22.5 µM | SF-268 12.7 µM | UO-31 17.4 µM | UACC-257 38.9 µM | K562 10.1 µM | MOLT-4 8 µM | HOP-92 13.8 µM

— ChEMBL document CHEMBL1201862, “PubChem BioAssay data set” (2004)
